# In patent US12018059B2, “Human amylin analog polypeptides and methods of use” (Intarcia Therapeutics, Inc., priority 2018, dated 2024):
# Positions of bridges follow the written chain, without caps; N, C: chain ends. Residues, ends and D or L forms follow the SMILES beside them.
# Test: Pharmacokinetics, 3-hour intravenous infusion of linear (non-acylated) polypeptides
# Design: species or system Sprague-Dawley rats
# Details: rat, in vivo, 0.1 mg/kg; linear polypeptides; 3-hour intravenous infusion, 0.100 mg/kg, male Sprague-Dawley rats; read-out: CL
# Method: Peptides were dissolved in sterile saline and administered as a 3-hour intravenous infusion to non-fasted male Sprague-Dawley rats (n=3 per group) via femoral vein cannula at a final dose of 0.100 mg/kg. […] Blood samples (approximately 250 μL) were collected for pharmacokinetic analysis via a jugular vein cannula at 0.25, 0.5, 1, 2, 3, 3.17, 3.33, 3.5, 4, 4.5, 5, and 6 hr post-start of infusion (long method) or at 1, 1.5, 2, 2.5, and 3 hr post-start of infusion (steady-state screening method). All samples were collected into microtainer tubes containing K2EDTA as anticoagulant and 25 μL of a protease inhibitor cocktail. Plasma was prepared by centrifugation and stored at −80° C. until analysis. The results of this analysis are shown in Table 9 and few exemplars in FIGS. 3a-3b.
# A 60 μL aliquot of each plasma sample was placed into to a 96-well plate. To each well was added 6 μL of 0.5% Tween-20. Plates were then vortexed mixed for 10 minutes at 1200 rpm before 180 μL of 0.1% TFA in 2:1 ethanol:acetonitrile containing an appropriate internal standard was added to each well. Plates were vortex mixed for 5 min at 1300 rpm, and then centrifuged for 10 min at 2844×g. Supernatants (180 μL) were placed into a clean 96-well plate and evaporated under a nitrogen stream at 45° C. Residues were reconstituted in 80 μL of 20% acetonitrile (aq) containing 0.1% formic acid.
# A […] aliquot of each plasma sample was diluted with […] of 10 mM ammonium acetate (pH 6.8) containing an appropriate internal standard and loaded onto an Oasis WCX microElution plate (Waters Corporation, Milford, MA) that had been pre-conditioned with […] of methanol and […] of deionized water. Samples were washed with […] of 5% ammonium hydroxide (aq) followed by […] of 20% acetonitrile in water. The analyte was eluted with […] of 5% formic acid in 75:25 acetonitrile:water. The eluent was dried under a nitrogen stream. Residues were reconstituted in 80 μL of 20% acetonitrile (aq) containing 0.1% formic acid.
# All calibration standards were prepared in control rat plasma containing K2EDTA and protease inhibitor cocktail.
# Samples and standards were analyzed by TurbolonSpray™ UPLC-MS/MS using a system consisting of a CTC HTS PAL auto-injector (Leap, Carrboro, NC), an Agilent Infinity 1290 system with column oven (Palo Alto, CA), a Valco switching valve (Houston, TX), and either an AB Sciex API 5600 TripleTOF™ or Sciex API 4000QTrap mass spectrometer (Framingham, MA). Samples were injected onto a 2.1×50 mm reverse phase C18 analytical column, typically a Waters CORTECS UPLC C18+, 1.6 μm (Waters Corporation, Milford, MA) or similar. […] Initial conditions consisted of 90% A and 10% B. The organic component was increased to 95% B over a period of 3-4 minutes, depending on the peptide. Typical flow rates were 600 μL/min. The column temperature was held constant at 40 or 50° C. Peptides were quantified by monitoring one or more product ions produced from a multiply charged parent ion.
row,SMILES,clearance
1,CC[C@H](C)[C@H](NC(=O)[C@@H]1CCCN1C(=O)CNC(=O)[C@H](Cc1ccccc1)NC(=O)[C@H](CC(N)=O)NC(=O)[C@H](CC(N)=O)NC(=O)[C@H](CO)NC(=O)[C@H](CO)NC(=O)[C@H](Cc1c[nH]cn1)NC(=O)[C@@H](NC(=O)[C@H](CC(C)C)NC(=O)[C@H](CCC(=O)O)NC(=O)[C@H](CC(N)=O)NC(=O)[C@H](C)NC(=O)[C@H](CC(C)C)NC(=O)[C@H](CCCNC(=N)N)NC(=O)[C@H](CCC(N)=O)NC(=O)[C@@H](NC(=O)[C@H](C)NC(=O)[C@@H]1CSSC[C@H](NC(=O)[C@@H](N)CO)C(=O)N[C@@H](CC(N)=O)C(=O)N[C@@H]([C@@H](C)O)C(=O)N[C@@H](CO)C(=O)N[C@@H]([C@@H](C)O)C(=O)N1)[C@@H](C)O)C(C)C)C(=O)N[C@@H](CC(C)C)C(=O)N1CCC[C@H]1C(=O)N1CCC[C@H]1C(=O)N[C@H](C(=O)N[C@@H](CC(N)=O)C(=O)N[C@H](C(=O)NCC(=O)N[C@@H](CO)C(=O)N[C@@H](CC(N)=O)C(=O)N[C@H](C(=O)N[C@@H](Cc1ccc(O)cc1)C(N)=O)[C@@H](C)O)C(C)C)[C@@H](C)O [Compound A44] (H-SCNTSTCATQRLANELVHSSNNFGPILPPTNVGSNTY-NH2; disulfide 2-7),14.2 mL/min/kg
2,CC[C@H](C)[C@H](NC(=O)[C@@H]1CCCN1C(=O)CNC(=O)[C@H](Cc1ccccc1)NC(=O)[C@H](CC(N)=O)NC(=O)[C@H](CC(N)=O)NC(=O)[C@H](CO)NC(=O)[C@H](CO)NC(=O)[C@H](CCCNC(=N)N)NC(=O)[C@H](Cc1c[nH]cn1)NC(=O)[C@H](CC(C)C)NC(=O)[C@H](CCC(=O)O)NC(=O)[C@H](CC(N)=O)NC(=O)[C@H](C)NC(=O)[C@H](CC(C)C)NC(=O)[C@H](CCCNC(=N)N)NC(=O)[C@H](CCC(N)=O)NC(=O)[C@@H](NC(=O)[C@H](C)NC(=O)[C@@H]1CSSC[C@H](NC(=O)[C@@H](N)CO)C(=O)N[C@@H](CC(N)=O)C(=O)N[C@@H]([C@@H](C)O)C(=O)N[C@@H](CO)C(=O)N[C@@H]([C@@H](C)O)C(=O)N1)[C@@H](C)O)C(=O)N[C@@H](CC(C)C)C(=O)N1CCC[C@H]1C(=O)N1CCC[C@H]1C(=O)N[C@H](C(=O)N[C@@H](CC(N)=O)C(=O)N[C@H](C(=O)NCC(=O)N[C@@H](CO)C(=O)N[C@@H](CC(N)=O)C(=O)N[C@H](C(=O)N[C@@H](Cc1ccc(O)cc1)C(N)=O)[C@@H](C)O)C(C)C)[C@@H](C)O [Compound A45] (H-SCNTSTCATQRLANELHRSSNNFGPILPPTNVGSNTY-NH2; disulfide 2-7),21.1 mL/min/kg
3,CC[C@H](C)[C@H](NC(=O)[C@@H]1CCCN1C(=O)CNC(=O)[C@H](Cc1ccccc1)NC(=O)[C@H](CC(N)=O)NC(=O)[C@H](CC(N)=O)NC(=O)[C@H](CO)NC(=O)[C@H](CO)NC(=O)[C@H](CCCNC(=N)N)NC(=O)[C@H](Cc1c[nH]cn1)NC(=O)[C@H](CC(C)C)NC(=O)[C@H](Cc1ccc(O)cc1)NC(=O)[C@H](CC(N)=O)NC(=O)[C@H](C)NC(=O)[C@H](CC(C)C)NC(=O)[C@H](CCCNC(=N)N)NC(=O)[C@H](CCC(N)=O)NC(=O)[C@@H](NC(=O)[C@H](C)NC(=O)[C@@H]1CSSC[C@H](NC(=O)[C@@H](N)CO)C(=O)N[C@@H](CC(N)=O)C(=O)N[C@@H]([C@@H](C)O)C(=O)N[C@@H](C)C(=O)N[C@@H](CO)C(=O)N1)[C@@H](C)O)C(=O)N[C@@H](CC(C)C)C(=O)N1CCC[C@H]1C(=O)N1CCC[C@H]1C(=O)N[C@H](C(=O)N[C@@H](CC(N)=O)C(=O)N[C@H](C(=O)NCC(=O)N[C@@H](CO)C(=O)N[C@@H](CC(N)=O)C(=O)N[C@H](C(=O)N[C@@H](Cc1ccc(O)cc1)C(N)=O)[C@@H](C)O)C(C)C)[C@@H](C)O [Compound A61] (H-SCNTASCATQRLANYLHRSSNNFGPILPPTNVGSNTY-NH2; disulfide 2-7),22.8 mL/min/kg

# Same assay, conditions: rat, in vivo, iv, 0.1 mg/kg
row,SMILES,clearance
1,CC[C@H](C)[C@H](NC(=O)[C@@H]1CCCN1C(=O)CNC(=O)[C@H](Cc1ccccc1)NC(=O)[C@H](CC(N)=O)NC(=O)[C@H](CC(N)=O)NC(=O)[C@H](CO)NC(=O)[C@H](CO)NC(=O)[C@H](CCCCN)NC(=O)[C@H](Cc1c[nH]cn1)NC(=O)[C@H](CC(C)C)NC(=O)[C@H](CCC(=O)O)NC(=O)[C@H](CC(N)=O)NC(=O)[C@H](C)NC(=O)[C@H](CC(C)C)NC(=O)[C@H](CCCNC(=N)N)NC(=O)[C@H](CCC(N)=O)NC(=O)[C@@H](NC(=O)[C@H](C)NC(=O)[C@@H]1CSSC[C@H](NC(=O)[C@@H](N)CO)C(=O)N[C@@H](CC(N)=O)C(=O)N[C@@H]([C@@H](C)O)C(=O)N[C@@H](CO)C(=O)N[C@@H]([C@@H](C)O)C(=O)N1)[C@@H](C)O)C(=O)N[C@@H](CC(C)C)C(=O)N1CCC[C@H]1C(=O)N1CCC[C@H]1C(=O)N[C@H](C(=O)N[C@@H](CCCCN)C(=O)N[C@H](C(=O)NCC(=O)N[C@@H](CO)C(=O)N[C@@H](CCC(=O)O)C(=O)N[C@H](C(=O)N[C@@H](Cc1ccc(O)cc1)C(N)=O)[C@@H](C)O)C(C)C)[C@@H](C)O [Compound A57] (H-SCNTSTCATQRLANELHKSSNNFGPILPPTKVGSETY-NH2; disulfide 2-7),10.7 mL/min/kg
2,CC[C@H](C)[C@H](NC(=O)[C@@H]1CCCN1C(=O)CNC(=O)[C@H](Cc1ccccc1)NC(=O)[C@H](CC(N)=O)NC(=O)[C@H](CC(N)=O)NC(=O)[C@H](CO)NC(=O)[C@H](CO)NC(=O)[C@H](CCCCN)NC(=O)[C@H](CCC(N)=O)NC(=O)[C@H](CC(C)C)NC(=O)[C@H](Cc1ccccc1)NC(=O)[C@H](CC(N)=O)NC(=O)[C@H](C)NC(=O)[C@H](CC(C)C)NC(=O)[C@H](CCCNC(=N)N)NC(=O)[C@H](CO)NC(=O)[C@@H](NC(=O)[C@H](C)NC(=O)[C@@H]1CSSC[C@H](NC(=O)[C@@H](N)CO)C(=O)N[C@@H](CC(N)=O)C(=O)N[C@@H]([C@@H](C)O)C(=O)N[C@@H](CO)C(=O)N[C@@H]([C@@H](C)O)C(=O)N1)[C@@H](C)O)C(=O)N[C@@H](CC(C)C)C(=O)N1CCC[C@H]1C(=O)N1CCC[C@H]1C(=O)N[C@H](C(=O)N[C@@H](CCCCN)C(=O)N[C@H](C(=O)NCC(=O)N[C@@H](CO)C(=O)N[C@@H](CCC(=O)O)C(=O)N[C@H](C(=O)N[C@@H](Cc1ccc(O)cc1)C(N)=O)[C@@H](C)O)C(C)C)[C@@H](C)O [Compound A62] (H-SCNTSTCATSRLANFLQKSSNNFGPILPPTKVGSETY-NH2; disulfide 2-7),18.8 mL/min/kg
3,CC[C@H](C)[C@H](NC(=O)[C@@H]1CCCN1C(=O)CNC(=O)[C@H](Cc1ccccc1)NC(=O)[C@H](CC(N)=O)NC(=O)[C@H](CC(N)=O)NC(=O)[C@H](CO)NC(=O)[C@H](CO)NC(=O)[C@H](Cc1c[nH]cn1)NC(=O)[C@@H](NC(=O)[C@H](CC(C)C)NC(=O)[C@H](Cc1ccc(O)cc1)NC(=O)[C@H](CC(N)=O)NC(=O)[C@H](C)NC(=O)[C@H](CC(C)C)NC(=O)[C@H](CCCNC(=N)N)NC(=O)[C@H](CO)NC(=O)[C@@H](NC(=O)[C@H](C)NC(=O)[C@@H]1CSSC[C@H](NC(=O)[C@@H](N)CO)C(=O)N[C@@H](CC(N)=O)C(=O)N[C@@H]([C@@H](C)O)C(=O)N[C@@H](CO)C(=O)N[C@@H]([C@@H](C)O)C(=O)N1)[C@@H](C)O)C(C)C)C(=O)N[C@@H](CC(C)C)C(=O)N1CCC[C@H]1C(=O)N1CCC[C@H]1C(=O)N[C@H](C(=O)N[C@@H](CCCCN)C(=O)N[C@H](C(=O)NCC(=O)N[C@@H](CO)C(=O)N[C@@H](CCC(=O)O)C(=O)N[C@H](C(=O)N[C@@H](Cc1ccc(O)cc1)C(N)=O)[C@@H](C)O)C(C)C)[C@@H](C)O [Compound A111] (H-SCNTSTCATSRLANYLVHSSNNFGPILPPTKVGSETY-NH2; disulfide 2-7),20 mL/min/kg
